# Earlier results as cited in patent publication US20030219387A1, “Local delivery of agents for disruption and inhibition of bacterial biofilm for treatment of periodontal disease” (priority 2000, published 2003).
# What was measured:
# [1] = tested on: gingipain
# [2] = tested on: P. gingivalis
structure (smiles),measurement,setting,value
CC(=N)N1CC[C@H](Oc2ccc([C@H](Cc3ccc4ccc(C(=N)N)cc4c3)C(=O)O)cc2)C1 [DX-9065a],inhibition of gingipain,[1],can inhibit gingipain
same,reduction of P. gingivalis growth,[2],selectively reduces P. gingivalis growth
